Results from patent US9604987B2, “Synthesis of autophagy inducing compound and the uses thereof” (Hong Kong Baptist University, priority 2012, dated 2017).

Key:
Drosophila fat body = assay: Atg8a-EGFP puncta in Drosophila fat body (confocal); format: in vivo; conditions: L3 larvae, 100 μM, 6 hours
Description: To further test whether CB6 and CB8 could induce autophagy in vivo, Drosolphila expressing Atg8a-GFP (Atg8a, Drosophila homologue of LC3) are obtained by crossing Cg-GAL4, a GAL4 line drives transgene expression in fat body, with UAS-Atg8a-EGFP. Crossed flies are allowed to lay eggs for 1 hour, 90 hours later, the L3 larvae are collected and treated with 100 μM of Cory B, CB6 and CB8 for 6 hours respectively. After treatment, the fat body lobes of the larvae are harvested with fine forceps and fixed with 4% PFA in PBS at room temperature for 15 minutes. Fat body lobes are then washed with PBS three times and subsequently mounted with VECTASHIELD hardset anti-fade mounting medium. The slides are then subjected to confocal microscopy analysis.
Crossed flies were allowed to lay eggs for 1 hr, 90 hrs later, the L3 larvae were collected for further treatment. The compounds were firstly dissolved in DMSO and then diluted to the desired concentration with ddH2O and then mixed thoroughly with instant fly food. The L3 larvae were placed in the prepared food and received treatment for 6 hrs. After treatment, the fat body lobes of the larvae were harvested with fine forceps and fixed with 4% PFA in PBS at room temperature for 15 min. Fat body lobes were then washed with PBS three times and subsequently mounted with VECTASHIELD hardset antifade mounting medium. […]

N2a cells = assay: Western blot of autophagy marker LC3-II in N2a cells; format: cell-based, mouse; conditions: for pro-autophagic activity (LC3II protein signal): various concentrations, 12 hrs
Description: Native and denatured PAGE and Western blotting analysis. Samples to be run under denaturing conditions were lysed with RIPA lysis buffer (150 mM NaCl, 50 mM Tris-HCl, 0.35% sodium deoxycholate, 1 mM EDTA, 1% NP40, 1 mM PMSF, 5 μg/ml aprotinin, 5 μg/ml leupeptin). Samples for native gels were lysed with detergent-free lysis buffer (50 mM Tris/HCl pH 7.4, 175 mM NaCl, 5 mM EDTA pH 8.0, 1 mM PMSF, 5 μg/ml aprotinin, 5 μg/ml leupeptin), and sheared 5 times through a 28-gauge needle followed by 2 times of sonication for 5 seconds according to previously described protocol. For denaturing, SDS-PAGE was performed using Tris-Glycine SDS running buffer and SDS sample buffer, and for native conditions, native-PAGE was run with detergent-free Tris-Glycine running buffer (BN2007, Invitrogen) and 4× native sample buffer (BN2003, Invitrogen) on a pre-casted native PAGE gel (BN1002BOX, Invitrogen). The proteins on the gels were then transferred to PVDF membrane (RPN303F, GE Healthcare) and processed for immunoblotting. Membranes were blocked with 5% non-fat milk and probed with the appropriate primary and secondary antibodies. The desired bands were visualized using the ECL kit (32106, Pierce). The band density was quantified using the ImageJ program and normalized to that of the control group.
In order to confirm the neuronal autophagy inducing activity of Cory B (its chemical structure is shown in FIG. 1A), mouse neuroblastoma N2a, rat phenochromocytoma PC12 and human neurobastoma SH-SY5Y are treated with different concentrations of Cory B for 24 hours and cell lysates are subjected to western blotting analysis of LC3-II expression which is an autophagy-specific marker.
To confirm that enhancement of autophagy markers by Cory B is due to induction of autophagy rather than blockage of autophagosome maturation, N2a cells are treated with 25 μM Cory B or 30 μM lysosome inhibitor CQ together with Cory B for 12 hours. Cell lysates are subject to western blot analysis. Data are presented as the mean±SEM from 3 independent experiments (***p<0.001, one-way ANOVA for multiple comparison and Tukey's test as post hoc test). Both LC3-II levels and the number of GFP-LC3 puncta in the Cory B and CQ co-treatment group are much higher than in the CQ-alone treatment group (FIG. 2A-D). Meanwhile, Cory B induces GFP-LC3 puncta formation is abolished by treatment of 5 mM autophagy inhibitor 3-MA for 24 hours (FIG. 2C, D). Cells were fixed in 4% paraformaldehyde and analyzed under a confocal microscope. Data are presented as the mean±SEM of one representative experiment from three independent experiments. (***p<0.001, one-way ANOVA for multiple comparison and Tukey's test as post hoc test). […] Thus, Cory B is indeed an autophagy inducer in neuronal cells.
To compare the activities of oxindole alkaloids on autophagy induction, LC3II expression levels in N2a cells after treatment with Corynoxine B (Cory B) (FIG. 8A), Corynoxine (Cory) (FIG. 8B), Rhynchophylline (Rhy) (FIG. 8C) and Isorhynchophylline (IsoRhy) for 12 hours are examined.
In order to examine the pro-autophagic activities of the synthesized Cory B analogues, neuroblastoma 2a, a neuronal cell line, are treated with various concentrations of the analogues for 12 hrs. The cells are then harvested and lysed with RIPA buffer (150 mM NaCl, 50 mM Tris-HCl pH 7.4, 0.35% sodium deoxycholate, 1 mM EDTA, 1% NP40, 1 mM PMSF, 5 μg/ml aprotinin, 5 μg/ml leupeptin). The sample are lysed on ice with occasional vortex for 30 min, and then centrifuged at 14,000 rpm for 15 min at 4° C. The supernatant are collected and denatured at 95° C. in sample buffer for 5 min. The denatured samples are then separated on 15% SDS-PAGE gels and transferred to PVDF membrane. Membranes are then blocked with 5% non-fat milk and probed with appropriate primary and secondary antibodies. The protein signals of LC3II, marker protein of autophagy, are finally visualized with ECL kit and the protein bands density are quantified by ImageJ program. […]

Compound | autophagy in vivo (Atg8a-EGFP puncta) (Drosophila fat body) | pro-autophagic activity (LC3II protein signal) (N2a cells; N2a) | LC3-II levels and number of GFP-LC3 puncta, co-treatment with CQ versus CQ alone (N2a cells; 25 μM Cory B + 30 μM CQ, 12 hours) | LC3-II levels (N2a cells; N2a, 0-25 μM, 24 hours) | autophagy induction (LC3II expression level) (N2a cells; N2a, oxindole alkaloids, 12 hours)
C=CCN1C(=O)[C@]2(CCN3C[C@@H](CC)[C@@H](/C(=C\OC)C(=O)OC)C[C@H]32)c2ccccc21 [CB8] | able to induce autophagy | novel autophagy inducer | – | – | –
CC[C@@H]1CN2CC[C@]3(C(=O)Nc4ccccc43)C2C[C@@H]1C(=COC)C(=O)OC (stereo partly shown) [Cory B, Corynoxine B] | – | – | much higher | increases levels of LC3-II | significantly activate autophagy
CCCN1C(=O)[C@]2(CCN3C[C@@H](CC)[C@@H](/C(=C\OC)C(=O)OC)C[C@H]32)c2ccccc21 [CB6] | able to induce autophagy | novel autophagy inducer | – | – | –
